Assay: Solubility measurement in dilution solvent (PGMEA)
Assay type: physicochemical
Details: 0.5 g compound, 25° C., 100 rpm, one hour
Method: A dilution solvent (PGMEA) is respectively added to 0.5 g of the compounds according to Synthesis Examples 8 to 17 and Comparative Synthesis Examples 1 and 2, and each solution is stirred with a mixrotar (MIXROTAR VMR-5, Iuchi Seieido Co., Ltd.) at 25° C. and 100 rpm for one hour.
Reference for Solubility Evaluation
Greater than or equal to 10 wt % of a compound (a solute) is dissolved based on the total amount of a dilution solvent: ∘
Greater than or equal to 5 wt % but less than 10 wt % of a compound (a solute) is dissolved based on the total amount of a dilution solvent: Δ
Less than 5 wt % of a compound (a solute) is dissolved based on the total amount of a dilution solvent: X

CCCCCOc1c(Cl)c(Cl)c2c(c1Cl)C1=NC/2=N\c2c3c(Cl)c(Cl)c(OCCCCC)c(Cl)c3c3[n]2[Zn][n]2/c(c4c(Cl)c(Cl)c(OCCCCC)c(Cl)c4/c2=N/1)=N\C1=NC(=N\3)/c2c(Cl)c(Cl)c(OCCCCC)c(Cl)c21 [Comparative Synthesis Example 2]
Solubility: Δ (Greater than or equal to 5 wt % but less than 10 wt % of a compound (a solute) is dissolved based on the total amount of a dilution solvent)

Reference: patent US9815843B2, “Compound, photosensitive resin composition comprising the same, and color filter” (Samsung SDI Co., Ltd., priority 2015, dated 2017)
